Source: US10035810B2, “5,6-dihydro-4H-benzo[b]thieno-[2,3-d]azepine derivative” (PULMOCIDE LIMITED, priority 2014, dated 2018)

Assays:
[1] = tested on: hRSV/A/Long; experiment: RSV infection in cotton rats: virus titre in lung homogenate (plaque assay); type: in vivo, cotton rats (Sigmodon hispidus)
[2] = tested on: RSV B Washington strain; experiment: RSV B-induced CPE in HEp2 cells; type: cell-based; conditions: human respiratory syncytial virus
Protocol: Assessment of RSV Induced CPE in HEp2 Cells
HEp2 cells were seeded (10^3/well/50 μL) in 384-well plates (Catalogue number 353962, BD Falcon, Oxford, UK) in […] containing 2 mM L-glutamine and 1 mM sodium pyruvate one day before infection. RSV A2 strain (#0709161v, NCPV, Public Health England, Wiltshire) or RSV B Washington strain (VR-1580, ATCC, Manassas, Va. 20108) virus solutions were prepared in serum free-DMEM with 2 mM L-glutamine and 1 mM sodium pyruvate, and then added (50 μL/well) to achieve a final virus concentration of 1 MOI. Simultaneously Compound (I) (0.5 μL DMSO solution) was added to 100 μL of HEp2 cell culture with virus solution to provide a final DMSO solution of 0.5%. Plates were incubated (37° C./5% CO2) for 5 days for studies using RSV A2 strain or 6 days for those using RSV B strain, and then resazurin sodium salt (5 μL of 0.03% solution; Sigma-Aldrich, Dorset, UK) was added to each well and the plate incubated for a further 6 hr (37° C./5% CO2). The fluorescence of each well [545 nm (excitation)/590 nm (emission)] was determined using a multi-scanner (Clariostar: BMG, Buckinghamshire, UK). The percentage inhibition for each well was calculated and the IC50, IC75 and IC90 values were calculated from the concentration-response curve generated for Compound (I).

[3] = tested on: RSV A2 F-protein; experiment: RSV F protein expression in BEAS2B bronchial epithelial cells; type: cell-based; conditions: human respiratory syncytial virus, BEAS-2B, 72 h, read-out: RSV A2 F-protein IC50
Protocol: Assessment of RSV F Protein Expression in BEAS2B Bronchial Epithelial Cells
An early event which follows the infection of epithelial cells by RSV is the expression of RSV F-protein on the cells' surface. BEAS2B cells (SV40-immortalised human bronchial epithelial cell line) were grown in 96 well plates. Once more than 70% confluent, cells were infected with RSV A2 (#0709161v, NCPV, Public Health England, Wiltshire) at an MOI of 0.01 in clear RPMI-1640 medium (Life technologies, Paisley, UK) with 2% FBS (Life technologies, Paisley, UK), and incubated for 3 days (37° C./5% CO2).
Supernatant was aspirated and the cells were fixed with 4% formaldehyde (100 μL in PBS solution) for 20 min, washed 3 times with washing buffer (200 μL; PBS containing 0.05% Tween-20) and incubated with blocking solution (100 μL; 5% Marvel milk in PBS) for 1 hr. […] The resultant signal was determined colourimetrically (OD: 450 nm with a reference wavelength of 655 nm) in a microplate reader (Multiskan FC®, ThermoFisher Scientific). […] After washing with PBS (200 μL) three times, 1% SDS (100 μL) was added to each well, and plates were shaken lightly for 1 hr prior to reading the absorbance at 595 nm. The measured OD450-655 readings were corrected for cell number by dividing the OD450-655 by the OD595 readings. […]

Compound: Cc1cnc(N2CC3(CCOCC3)C2)c(C(=O)Nc2ccc(C(=O)N3CCc4cc(C(=O)Nc5c(C)cccc5F)sc4-c4ccccc43)cc2)c1 [Compound (I), N-(2-fluoro-6-methylphenyl)-6-(4-(5-methyl-2-(7-oxa-2-azaspiro[3.5]nonan-2-yl)nicotinamido)benzoyl)-5,6-dihydro-4H-benzo[b]thieno[2,3-d]azepine-2-carboxamide]
- Virus titre in the lungs (in words) ([1]; RSV A2 infected cotton rats): completely inhibited virus titre
- Virus titre in lung homogenates (in words) ([1]; infected cotton rats, day 4): potent dose-dependent inhibition of virus titre
- IC50 ([2]; HEp-2, 144 h, 1 MOI, 6 days): 10.2 nM
- inhibition at 1 µg/mL ([2]; HEp-2, at 1 μg/mL): 72%
- IC50 [3]: 0.17 nM
